In ChEMBL document CHEMBL1201862, “PubChem BioAssay data set” (2004):
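96-well plates; 48 h exposure; 5 concentrations. Endpoints by linear interpolation between flanking doses. Not reached: highest tested concentration assigned. Abbreviation: GI50, concentration required for 50% inhibition of growth.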 Activity calls are given as the source filed them. No stated cut-off is given here; in the data, active = GI50 up to about 1.1 µM and inactive = higher.

What was measured:
Assay in all cases: NCI-60 cell line screen, 48 h
A498 = test system: A498
EKVX = test system: EKVX
MCF7 = test system: MCF7
NCI-H522 = test system: NCI-H522
NCI/ADR-RES = test system: NCI/ADR-RES
OVCAR-3 = test system: OVCAR-3
OVCAR-4 = test system: OVCAR-4
SF-295 = test system: SF-295
SK-MEL-28 = test system: SK-MEL-28
SK-OV-3 = test system: SK-OV-3
SN12C = test system: SN12C
U-251 = test system: U-251
UACC-257 = test system: UACC-257
786-0 = test system: 786-0
M14 = test system: M14
MDA-MB-435 = test system: MDA-MB-435
DU-145 = test system: DU-145
TK-10 = test system: TK-10

Measured: GI50

CCCN1C(=O)/C(=C(/O)C(=O)OCC)C(c2ccc(OC)c(OC)c2)C1=O (stereo not drawn)
inactive: A498 > 100 µM | EKVX > 100 µM | MCF7 > 100 µM | NCI-H522 > 100 µM | NCI/ADR-RES > 100 µM | OVCAR-3 > 47.8 µM | OVCAR-4 > 100 µM | SF-295 > 100 µM | SK-MEL-28 > 100 µM | SK-OV-3 > 100 µM | SN12C > 100 µM | U-251 > 100 µM | UACC-257 > 100 µM

COc1cccc2c1C(=O)c1c(O)c3c(c(O)c1C2=O)C[C@@](O)(C(=O)CN1CCOCC1)C[C@@H]3OC1CC(N)C(O)C(C)O1 (stereo partly drawn)
active: MCF7 0.938 µM | OVCAR-3 0.000912 µM | UACC-257 0.000769 µM
inactive: A498 8.55 µM | EKVX 10.4 µM | NCI-H522 2.82 µM | NCI/ADR-RES 5.52 µM | OVCAR-4 9.53 µM | SF-295 3.72 µM | SK-MEL-28 12.2 µM | SK-OV-3 7.62 µM | SN12C 2.4 µM | U-251 2.12 µM

CCCCN(C)/N=N/c1[nH]cnc1C(N)=O
inactive: A498 > 71.1 µM | EKVX > 100 µM | MCF7 > 100 µM | NCI-H522 > 100 µM | NCI/ADR-RES > 100 µM | OVCAR-3 99.5 µM | OVCAR-4 68.9 µM | SF-295 > 94.2 µM | SK-MEL-28 > 100 µM | SK-OV-3 35.8 µM | SN12C > 100 µM | U-251 > 100 µM | UACC-257 > 73.5 µM

CC(C)(C)OC/C=C(/CO)[C@@H]1C=C[C@H](O)C1
inactive: 786-0 > 100 µM | A498 > 100 µM | EKVX > 100 µM | M14 > 100 µM | MCF7 > 100 µM | MDA-MB-435 > 100 µM | NCI/ADR-RES > 100 µM | OVCAR-3 > 100 µM | OVCAR-4 > 100 µM | SF-295 > 100 µM | SK-MEL-28 > 100 µM | SK-OV-3 > 100 µM | SN12C > 100 µM | U-251 > 100 µM | UACC-257 > 100 µM

O=C1C2=C(C3=NCCc4c[nH]c1c43)c1c(cc(Br)c(O)c1Br)CCN2
inactive: A498 20.2 µM | EKVX 17.8 µM | MCF7 7.69 µM | NCI-H522 2 µM | NCI/ADR-RES 14.5 µM | OVCAR-3 2.73 µM | OVCAR-4 11 µM | SF-295 7.13 µM | SK-MEL-28 17.2 µM | SK-OV-3 7.41 µM | SN12C 14.1 µM | U-251 11.9 µM | UACC-257 7.5 µM

CC1=NCCc2cc3[nH]c4ccccc4c3cc21
inactive: A498 11.5 µM | EKVX 41.2 µM | MCF7 15.1 µM | NCI-H522 21.3 µM | NCI/ADR-RES 23.7 µM | OVCAR-3 50.2 µM | OVCAR-4 47.5 µM | SF-295 13.4 µM | SK-MEL-28 10.7 µM | SK-OV-3 17.8 µM | SN12C 17.5 µM | U-251 22.7 µM | UACC-257 10.3 µM

C=C1C(=O)[C@@]23CC[C@H]4[C@@](C)(CCC[C@@]4(C)C(=O)OC)[C@@H]2CC[C@]1(O)C3
inactive: A498 1.71 µM | EKVX 2.06 µM | MCF7 2.12 µM | NCI-H522 1.54 µM | NCI/ADR-RES 1.37 µM | OVCAR-3 1.84 µM | OVCAR-4 1.89 µM | SF-295 5.82 µM | SK-MEL-28 1.84 µM | SK-OV-3 19.2 µM | SN12C 1.77 µM | U-251 3.38 µM | UACC-257 1.72 µM

O=C1Cc2c([nH]c3ccc(Br)cc23)-c2cc(Br)ccc2N1
inactive: 786-0 > 100 µM | A498 > 100 µM | DU-145 > 100 µM | EKVX > 100 µM | M14 > 100 µM | MCF7 > 100 µM | MDA-MB-435 > 100 µM | NCI/ADR-RES > 100 µM | OVCAR-4 > 100 µM | SF-295 > 100 µM | SK-MEL-28 > 100 µM | SK-OV-3 > 100 µM | TK-10 > 100 µM | U-251 > 100 µM | UACC-257 > 100 µM
